Data reported in US11959486B2, “Stable liquid formulation of AMG 416 (etelcalcetide)” (AMGEN INC., priority 2013, dated 2024).
Where two headings read alike, the source gives them in different places.

Experiments:
physchem = conditions: succinate buffered saline, pH 4.5
Description: In this study, the solubility of AMG 416 in succinate buffered-saline was investigated. […] After briefly vortexing, a clear solution was obtained with a nominal concentration of 400 mg/mL. Because expansion of the solution volume was not determined, the solubility of AMG 416 can be conservatively stated as at least 200 mg/mL. Although the maximal solubility was not determined in this experiment, AMG 416 is soluble in pH 4.5 succinate buffered saline to concentrations of at least 200 mg/mL.

[1] = for Degradation at 2 y: 3.4 mg/mL in succinate-buffered saline
Description: In this study, the long term stability of a liquid formulation of AMG 416, at a concentration of 3.4 mg/mL, was determined over a range of pH in succinate-buffered saline. USP purified water (1200 mL) was dispensed into a glass beaker. Sodium succinate (4.05 g) and sodium chloride (13.5 g) were added and stirred to dissolve. The pH was adjusted to 2.5 with 1N NaOH and/or 1N HCl as required. […] The solution was divided into three portions and the pH for each portion was adjusted to 2.5, 3.0 and 3.5, respectively. Each solution was filtered separately through 0.22 micron PVDF filter and dispense 2 mL to 5-cc vials. After being stoppered, sealed, and labeled, the vials were place in designated stability chambers at 5° C.±3, 25° C.±2, and 40° C.±2. Samples were retrieved according to schedule and diluted with deionized water to 1.0 mg/mL for HPLC analysis.

[2] = Concentration dependent stability in 25 mM succinate-buffered saline pH 4.5, HPLC purity, with Arrhenius extrapolation (Example 2); format: physicochemical; conditions: for Degradation at 29 days, 40 C / Degradation at 29 days, RT: pH 4.5; for Predicted extent of degradation at 1 yr 5° C. / Predicted extent of degradation at 1 yr RT / Predicted extent of degradation at 2 yr 5° C. / Predicted extent of degradation at 2 yr RT: pH 4.5 SBS, from RT 29-day data
Description: In this study, the stability of AMG 416 over a range of concentrations in succinate-buffered saline (pH 4.5) was investigated. The solution of […] AMG 416 from Example 1, supra, was diluted further with 200 μL of succinate-buffered saline (pH 4.5) to a nominal concentration of 200 mg/mL, which was serially diluted with succinate-buffered saline (pH 4.5) to 66, 20, 6.7, 2.2 and 0.67 mg/mL. The samples were kept at room temperature (i.e., about 25° C.) and aliquots were analyzed by HPLC at intervals up to 29 days. A second series of AMG 416 samples covering the concentration range 20 to 0.67 mg/mL were incubated at 40° C. and analyzed in the same manner.
The room temperature 29-day data from Table 1 was extrapolated to the stated time period by assuming linear degradation kinetics. Room temperature data was extrapolated to 5° C. A 20° C. difference was assumed, equivalent to a 4-fold lower rate of degradation. Extrapolations were carried out using a simple application of the Arrhenius equation, where at 10° C. rise in temperature provides a 2-fold increase in reaction rate, assuming the same reaction mechanism and that activation energy for each relevant reaction is around 50 kJ/mol.
Comparison of the data shown in Tables 1 and 2 allows assessment of temperature increase as a tool to predict the long-term stability of AMG 416 solutions.

[3] = Solution stability in different buffers (acetate, citrate, lactate, succinate), HPLC (Example 5); format: physicochemical; conditions: all buffers tested
Description: In this study, the stability of liquid formulations of AMG 416 was evaluated in four different buffers over 9 days. Buffered saline solutions were prepared at 25 mM concentration, pH 4.5, for four different anionic buffers in the sodium salt form: acetate, citrate, lactate and succinate. […] The solutions were diluted further with pH 4.5 buffer to 1.0 mg/mL and 0.25 mg/mL. Each of the resulting solutions was split to two glass HPLC vials, one stored at 2-8° C. and one at room temperature (about 25° C.). HPLC analysis was conducted at 0, 4 and 9 days for determination of potency and purity.

[4] = Stability in buffered solutions at pH 2.25, 2.5, 3.0 and 3.5, RP-HPLC purity and degradants (Example 6)
Description: In this study, the stability of a liquid formulation of AMG 416 under low pH conditions was investigated. Succinate-buffered saline (10 mM, pH 3.5) was prepared by dissolving 59 mg of succinic acid in 45 ml of lab processed (deionized) water and adjusting the pH to 3.5 using 1N HCl and 1N NaOH as needed, and q.s. to 50 ml. In the same way, a 10 mM, pH 3.5 sodium lactate (56 mg/50 mL) buffer solution was prepared.
NaCl (90 mg) was added to one portion and mannitol (500 mg) was added to the other. Each 10 mL portion was split again into two equal 5 mL portions and the pH was adjusted to 2.25 and 3.5, respectively, with 1N HCl and 1N NaOH. In the same way, four 5 mL solutions were prepared using lactate buffer. 1.0 mL of each of the (eight) resulting solutions was added to 3 serum sample vials. In addition, the remaining pH 2.25, succinate-buffered AMG 416 solution containing NaCl was adjusted to pH 2.5 and 0.5 mL aliquots were added to 3 serum sample vials and the remaining pH 3.5 succinate buffered solution with NaCl was adjusted to pH 3.0 and 0.5 mL aliquots were added to 3 serum sample vials.
At each time point (0, 2, 8, 12 and 24 weeks) all 30 samples were retrieved from storage, equilibrated to room temperature (about 25° C.), and a 100 μL aliquot was diluted to 0.5 mg/mL with water for RP-HPLC analysis. […]

Compound: CC(=O)N[C@H](CSSC[C@H](N)C(=O)O)C(=O)N[C@H](C)C(=O)N[C@H](CCCNC(=N)N)C(=O)N[C@H](CCCNC(=N)N)C(=O)N[C@H](CCCNC(=N)N)C(=O)N[C@H](C)C(=O)N[C@H](CCCNC(=N)N)C(N)=O [AMG 416, N-acetyl-D-cysteinyl-D-alanyl-D-arginyl-D-arginyl-D-arginyl-D-alanyl-D-arginamide disulfide with L-cysteine]
- solubility (physchem): ≥ 200 mg/mL
- Degradation at 2 y ([1]; pH 2.5, 5° C.): 4.4%
- Degradation at 2 y ([1]; pH 2.5, 25° C.): 30.7%
- Degradation at 2 y ([1]; pH 2.5, 40° C.): 78.8%
- Degradation at 2 y ([1]; pH 3, 5° C.): 1.5%
- Degradation at 2 y ([1]; pH 3, 25° C.): 14.6%
- Degradation at 2 y ([1]; pH 3, 40° C.): 60.0%
- Degradation at 2 y ([1]; pH 3.5, 5° C.): 0.9%
- Degradation at 2 y ([1]; pH 3.5, 25° C.): 10.0%
- Degradation at 2 y ([1]; pH 3.5, 40° C.): 53.1%
- stability over shelf-life ([1]; refrigerated conditions): adequate stability of AMG 416 over at least a two year shelf-life
- Degradation at 29 days, 40 C ([2]; 0.67 mg/mL): 5.0%
- Degradation at 29 days, RT ([2]; 0.67 mg/mL): 0.1%
- Predicted extent of degradation at 1 yr 5° C. ([2]; 0.67 mg/mL): 0.3%
- Predicted extent of degradation at 1 yr RT ([2]; 0.67 mg/mL): 1.4%
- Predicted extent of degradation at 2 yr 5° C. ([2]; 0.67 mg/mL): 0.7%
- Predicted extent of degradation at 2 yr RT ([2]; 0.67 mg/mL): 2.7%
- Degradation at 29 days, 40 C ([2]; 2.2 mg/mL): 5.0%
- Degradation at 29 days, RT ([2]; 2.2 mg/mL): 0.2%
- Predicted extent of degradation at 1 yr 5° C. ([2]; 2.2 mg/mL): 0.7%
- Predicted extent of degradation at 1 yr RT ([2]; 2.2 mg/mL): 2.6%
- Predicted extent of degradation at 2 yr 5° C. ([2]; 2.2 mg/mL): 1.3%
- Predicted extent of degradation at 2 yr RT ([2]; 2.2 mg/mL): 5.2%
- Degradation at 29 days, 40 C ([2]; 6.7 mg/mL): 9.4%
- Degradation at 29 days, RT ([2]; 6.7 mg/mL): 0.5%
- Predicted extent of degradation at 1 yr 5° C. ([2]; 6.7 mg/mL): 1.7%
- Predicted extent of degradation at 1 yr RT ([2]; 6.7 mg/mL): 7.0%
- Predicted extent of degradation at 2 yr 5° C. ([2]; 6.7 mg/mL): 3.5%
- Predicted extent of degradation at 2 yr RT ([2]; 6.7 mg/mL): 13.9%
- Degradation at 29 days, 40 C ([2]; 20 mg/mL): 26.7%
- Degradation at 29 days, RT ([2]; 20 mg/mL): 0.9%
- Predicted extent of degradation at 1 yr 5° C. ([2]; 20 mg/mL): 2.6%
- Predicted extent of degradation at 1 yr RT ([2]; 20 mg/mL): 10.4%
- Predicted extent of degradation at 2 yr 5° C. ([2]; 20 mg/mL): 5.2%
- Predicted extent of degradation at 2 yr RT ([2]; 20 mg/mL): 20.9%
- Predicted extent of degradation at 1 yr 5° C. ([2]; 66 mg/mL): 25.0%
- Predicted extent of degradation at 1 yr RT ([2]; 66 mg/mL): >100%
- Predicted extent of degradation at 2 yr 5° C. ([2]; 66 mg/mL): 50.1%
- Predicted extent of degradation at 2 yr RT ([2]; 66 mg/mL): >100%
- stability during the 9 day study [3]: good stability
- pH of maximal stability ([4]; 5 mg/mL solutions, Example 6): 3.0±0.5
- predicted total degradation over 2 years under refrigerated conditions ([4]; liquid formulations at pH 3.0): 2-4%
